{
  "source": "ChEMBL document CHEMBL5465560",
  "about": "“Selectivity Literature for EUbOPEN Chemogenomic Library” (2024)",
  "key": {"[1]": {"target": "T1, Serine/threonine-protein kinase LATS2 (Homo sapiens) (UniProt Q9NRM7)", "T1 sequence (whole entry)": "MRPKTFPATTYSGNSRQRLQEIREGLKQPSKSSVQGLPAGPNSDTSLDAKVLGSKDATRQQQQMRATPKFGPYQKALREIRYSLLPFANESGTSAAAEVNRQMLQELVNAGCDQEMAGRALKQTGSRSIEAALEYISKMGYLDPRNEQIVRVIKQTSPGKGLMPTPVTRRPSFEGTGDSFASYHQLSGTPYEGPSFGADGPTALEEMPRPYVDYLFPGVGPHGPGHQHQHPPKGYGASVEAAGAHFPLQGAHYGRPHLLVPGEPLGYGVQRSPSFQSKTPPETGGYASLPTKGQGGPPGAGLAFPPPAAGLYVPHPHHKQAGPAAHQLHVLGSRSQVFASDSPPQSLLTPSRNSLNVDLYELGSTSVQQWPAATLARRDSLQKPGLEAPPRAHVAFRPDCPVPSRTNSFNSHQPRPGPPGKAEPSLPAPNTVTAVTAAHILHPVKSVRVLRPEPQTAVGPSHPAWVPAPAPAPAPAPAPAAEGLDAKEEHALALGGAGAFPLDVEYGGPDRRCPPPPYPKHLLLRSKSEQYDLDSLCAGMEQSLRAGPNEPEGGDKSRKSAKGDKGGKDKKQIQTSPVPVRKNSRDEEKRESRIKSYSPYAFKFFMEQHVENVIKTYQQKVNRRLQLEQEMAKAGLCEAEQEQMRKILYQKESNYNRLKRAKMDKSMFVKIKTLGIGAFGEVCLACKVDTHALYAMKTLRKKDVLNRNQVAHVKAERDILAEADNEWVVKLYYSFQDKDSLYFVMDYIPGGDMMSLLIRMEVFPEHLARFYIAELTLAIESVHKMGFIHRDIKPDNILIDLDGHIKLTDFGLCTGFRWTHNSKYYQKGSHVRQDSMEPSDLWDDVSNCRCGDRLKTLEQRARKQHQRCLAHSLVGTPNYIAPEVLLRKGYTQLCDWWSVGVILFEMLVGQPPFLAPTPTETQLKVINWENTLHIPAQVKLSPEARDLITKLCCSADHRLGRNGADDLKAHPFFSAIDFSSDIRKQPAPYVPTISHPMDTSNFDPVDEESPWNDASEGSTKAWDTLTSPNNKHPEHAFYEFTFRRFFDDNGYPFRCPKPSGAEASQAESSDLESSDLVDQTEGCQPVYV", "test": "Selectivity interaction (Kinase panel (KiNativ target engagement assay in Jurkat cells)) EUB0001635a LATS2", "type": "cell-based", "conditions": "Selectivity number of off-targets 0.0, Selectivity number of targets 233.0, Source Knowledge https://www.sciencedirect.com/science/article/pii/S2451945619300674?via%3Dihub, at 1 µM"}, "[2]": {"target": "T2, Dual specificity mitogen-activated protein kinase kinase 4 (Homo sapiens) (UniProt P45985)", "T2 sequence (whole entry)": "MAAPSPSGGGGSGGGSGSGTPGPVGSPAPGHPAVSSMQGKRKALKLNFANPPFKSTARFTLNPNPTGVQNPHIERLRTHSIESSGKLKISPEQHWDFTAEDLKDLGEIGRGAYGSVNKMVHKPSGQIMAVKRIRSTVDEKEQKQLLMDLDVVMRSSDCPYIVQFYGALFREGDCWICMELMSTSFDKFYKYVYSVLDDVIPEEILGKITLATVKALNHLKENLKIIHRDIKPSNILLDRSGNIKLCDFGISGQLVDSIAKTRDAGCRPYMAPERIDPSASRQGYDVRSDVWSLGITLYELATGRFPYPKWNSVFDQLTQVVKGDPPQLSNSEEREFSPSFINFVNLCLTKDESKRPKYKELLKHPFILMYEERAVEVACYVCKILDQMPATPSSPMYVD", "test": "Selectivity interaction (KinomeScan (DiscoverX)) EUB0000045b MAP2K4"}, "[3]": {"target": "Rho-associated protein kinase 2 (Homo sapiens, UniProt O75116)", "test": "Selectivity interaction (KinomeScan (DiscoverX)) EUB0001079a ROCK2", "conditions": "at 1 µM"}, "[4]": {"target": "Platelet-derived growth factor receptor alpha (Homo sapiens, UniProt P16234)", "sequence (P16234 whole entry)": "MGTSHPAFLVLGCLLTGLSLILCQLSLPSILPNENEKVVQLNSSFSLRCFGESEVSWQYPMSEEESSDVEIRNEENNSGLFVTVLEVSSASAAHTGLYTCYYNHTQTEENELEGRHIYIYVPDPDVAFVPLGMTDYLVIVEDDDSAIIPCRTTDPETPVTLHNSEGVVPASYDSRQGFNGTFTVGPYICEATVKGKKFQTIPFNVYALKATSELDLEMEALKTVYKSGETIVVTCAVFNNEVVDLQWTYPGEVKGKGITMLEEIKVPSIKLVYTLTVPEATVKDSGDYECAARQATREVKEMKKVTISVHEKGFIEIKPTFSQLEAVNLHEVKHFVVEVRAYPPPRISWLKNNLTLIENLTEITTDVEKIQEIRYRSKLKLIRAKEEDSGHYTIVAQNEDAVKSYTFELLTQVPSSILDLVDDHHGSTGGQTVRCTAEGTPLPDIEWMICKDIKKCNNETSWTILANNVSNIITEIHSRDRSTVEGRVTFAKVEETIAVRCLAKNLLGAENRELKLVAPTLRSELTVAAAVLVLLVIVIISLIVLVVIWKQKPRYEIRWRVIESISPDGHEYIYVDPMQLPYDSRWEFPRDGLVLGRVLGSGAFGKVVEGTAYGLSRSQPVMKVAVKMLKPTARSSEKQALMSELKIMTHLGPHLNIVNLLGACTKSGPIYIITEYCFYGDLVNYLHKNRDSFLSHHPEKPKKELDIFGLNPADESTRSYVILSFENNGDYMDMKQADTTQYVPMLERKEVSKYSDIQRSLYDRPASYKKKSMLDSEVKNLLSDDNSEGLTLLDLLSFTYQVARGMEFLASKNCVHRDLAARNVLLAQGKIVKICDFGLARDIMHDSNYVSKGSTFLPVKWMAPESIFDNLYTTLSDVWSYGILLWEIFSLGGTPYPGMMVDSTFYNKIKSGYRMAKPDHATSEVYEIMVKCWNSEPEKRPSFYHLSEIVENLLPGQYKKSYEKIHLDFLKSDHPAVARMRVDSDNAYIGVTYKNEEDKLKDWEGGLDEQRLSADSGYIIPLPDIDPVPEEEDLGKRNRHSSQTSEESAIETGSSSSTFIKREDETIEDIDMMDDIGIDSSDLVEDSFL", "conditions": "at 10 µM"}, "[5]": {"target": "Macrophage colony-stimulating factor 1 receptor (Homo sapiens) (UniProt P07333)", "sequence (P07333 whole entry)": "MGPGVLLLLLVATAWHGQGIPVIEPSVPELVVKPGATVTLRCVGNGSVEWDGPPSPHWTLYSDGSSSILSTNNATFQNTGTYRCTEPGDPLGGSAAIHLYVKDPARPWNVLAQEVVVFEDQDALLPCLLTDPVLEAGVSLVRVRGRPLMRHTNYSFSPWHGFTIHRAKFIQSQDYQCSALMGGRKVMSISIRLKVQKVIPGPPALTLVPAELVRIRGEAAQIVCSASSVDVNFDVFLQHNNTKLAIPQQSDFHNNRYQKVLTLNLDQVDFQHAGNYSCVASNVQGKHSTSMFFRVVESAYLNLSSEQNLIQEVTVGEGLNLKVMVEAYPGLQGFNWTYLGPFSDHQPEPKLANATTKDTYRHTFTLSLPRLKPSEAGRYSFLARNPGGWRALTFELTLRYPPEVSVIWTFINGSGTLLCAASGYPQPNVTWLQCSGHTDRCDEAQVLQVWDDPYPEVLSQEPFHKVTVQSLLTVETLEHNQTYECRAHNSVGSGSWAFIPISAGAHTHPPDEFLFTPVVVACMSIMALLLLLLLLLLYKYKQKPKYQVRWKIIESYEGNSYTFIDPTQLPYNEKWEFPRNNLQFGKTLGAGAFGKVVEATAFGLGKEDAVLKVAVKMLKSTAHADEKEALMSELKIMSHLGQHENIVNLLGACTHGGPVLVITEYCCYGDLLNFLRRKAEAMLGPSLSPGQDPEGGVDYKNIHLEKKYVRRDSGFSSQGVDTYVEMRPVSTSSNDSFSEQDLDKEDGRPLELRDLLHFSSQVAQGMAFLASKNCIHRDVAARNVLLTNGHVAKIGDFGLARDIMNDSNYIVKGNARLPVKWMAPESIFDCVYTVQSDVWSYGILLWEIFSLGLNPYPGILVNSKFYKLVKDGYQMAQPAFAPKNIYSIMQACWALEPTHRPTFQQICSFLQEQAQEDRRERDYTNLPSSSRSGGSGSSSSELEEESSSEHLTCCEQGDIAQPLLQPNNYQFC", "test": "Selectivity interaction (ProQinase) EUB0000171b CSF1R"}, "[6]": {"target": "Bone morphogenetic protein receptor type-1A (Homo sapiens, UniProt P36894)", "sequence (P36894 whole entry)": "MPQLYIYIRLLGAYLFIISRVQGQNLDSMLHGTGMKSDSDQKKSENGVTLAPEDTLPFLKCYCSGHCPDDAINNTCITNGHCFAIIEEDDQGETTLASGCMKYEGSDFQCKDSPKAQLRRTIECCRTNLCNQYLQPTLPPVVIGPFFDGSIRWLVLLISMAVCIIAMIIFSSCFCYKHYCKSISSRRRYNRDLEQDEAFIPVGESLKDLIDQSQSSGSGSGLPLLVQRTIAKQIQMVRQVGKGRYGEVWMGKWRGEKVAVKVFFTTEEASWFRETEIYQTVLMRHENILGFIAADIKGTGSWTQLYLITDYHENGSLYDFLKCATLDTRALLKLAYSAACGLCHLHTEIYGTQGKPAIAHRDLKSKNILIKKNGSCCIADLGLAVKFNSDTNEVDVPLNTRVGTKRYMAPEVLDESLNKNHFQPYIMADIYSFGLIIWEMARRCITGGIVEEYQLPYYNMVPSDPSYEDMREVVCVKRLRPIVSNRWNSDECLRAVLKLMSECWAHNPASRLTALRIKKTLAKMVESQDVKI", "test": "Selectivity interaction (KinomeScan (DiscoverX)) EUB0001619a BMPR1A", "conditions": "at 1 µM"}, "[7]": {"target": "T3, Non-receptor tyrosine-protein kinase TNK1 (Homo sapiens) (UniProt Q13470)", "T3 sequence (whole entry)": "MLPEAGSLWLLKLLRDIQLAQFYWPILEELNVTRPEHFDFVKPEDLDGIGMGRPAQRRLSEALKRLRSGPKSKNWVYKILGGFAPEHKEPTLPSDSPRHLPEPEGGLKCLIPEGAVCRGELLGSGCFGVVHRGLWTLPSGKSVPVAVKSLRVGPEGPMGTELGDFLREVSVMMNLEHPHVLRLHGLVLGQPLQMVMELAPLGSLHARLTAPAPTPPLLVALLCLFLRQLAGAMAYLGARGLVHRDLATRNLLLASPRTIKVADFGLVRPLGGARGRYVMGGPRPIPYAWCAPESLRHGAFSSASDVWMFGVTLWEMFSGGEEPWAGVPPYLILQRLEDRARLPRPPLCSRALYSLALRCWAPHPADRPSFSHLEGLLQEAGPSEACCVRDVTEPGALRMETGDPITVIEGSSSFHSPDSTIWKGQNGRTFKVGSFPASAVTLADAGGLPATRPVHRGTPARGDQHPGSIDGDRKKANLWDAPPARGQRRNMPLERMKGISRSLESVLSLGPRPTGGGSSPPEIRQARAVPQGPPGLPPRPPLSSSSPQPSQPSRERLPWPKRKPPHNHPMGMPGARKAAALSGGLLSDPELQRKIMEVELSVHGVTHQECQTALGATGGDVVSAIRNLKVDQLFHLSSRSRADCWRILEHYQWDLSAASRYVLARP", "test": "Selectivity interaction (KinomeScan (DiscoverX)) EUB0000655a TNK1", "conditions": "at 10 µM"}, "[8]": {"target": "Rho-associated protein kinase 1 (Homo sapiens) (UniProt Q13464)", "sequence (Q13464 2-1354 limits assumed)": "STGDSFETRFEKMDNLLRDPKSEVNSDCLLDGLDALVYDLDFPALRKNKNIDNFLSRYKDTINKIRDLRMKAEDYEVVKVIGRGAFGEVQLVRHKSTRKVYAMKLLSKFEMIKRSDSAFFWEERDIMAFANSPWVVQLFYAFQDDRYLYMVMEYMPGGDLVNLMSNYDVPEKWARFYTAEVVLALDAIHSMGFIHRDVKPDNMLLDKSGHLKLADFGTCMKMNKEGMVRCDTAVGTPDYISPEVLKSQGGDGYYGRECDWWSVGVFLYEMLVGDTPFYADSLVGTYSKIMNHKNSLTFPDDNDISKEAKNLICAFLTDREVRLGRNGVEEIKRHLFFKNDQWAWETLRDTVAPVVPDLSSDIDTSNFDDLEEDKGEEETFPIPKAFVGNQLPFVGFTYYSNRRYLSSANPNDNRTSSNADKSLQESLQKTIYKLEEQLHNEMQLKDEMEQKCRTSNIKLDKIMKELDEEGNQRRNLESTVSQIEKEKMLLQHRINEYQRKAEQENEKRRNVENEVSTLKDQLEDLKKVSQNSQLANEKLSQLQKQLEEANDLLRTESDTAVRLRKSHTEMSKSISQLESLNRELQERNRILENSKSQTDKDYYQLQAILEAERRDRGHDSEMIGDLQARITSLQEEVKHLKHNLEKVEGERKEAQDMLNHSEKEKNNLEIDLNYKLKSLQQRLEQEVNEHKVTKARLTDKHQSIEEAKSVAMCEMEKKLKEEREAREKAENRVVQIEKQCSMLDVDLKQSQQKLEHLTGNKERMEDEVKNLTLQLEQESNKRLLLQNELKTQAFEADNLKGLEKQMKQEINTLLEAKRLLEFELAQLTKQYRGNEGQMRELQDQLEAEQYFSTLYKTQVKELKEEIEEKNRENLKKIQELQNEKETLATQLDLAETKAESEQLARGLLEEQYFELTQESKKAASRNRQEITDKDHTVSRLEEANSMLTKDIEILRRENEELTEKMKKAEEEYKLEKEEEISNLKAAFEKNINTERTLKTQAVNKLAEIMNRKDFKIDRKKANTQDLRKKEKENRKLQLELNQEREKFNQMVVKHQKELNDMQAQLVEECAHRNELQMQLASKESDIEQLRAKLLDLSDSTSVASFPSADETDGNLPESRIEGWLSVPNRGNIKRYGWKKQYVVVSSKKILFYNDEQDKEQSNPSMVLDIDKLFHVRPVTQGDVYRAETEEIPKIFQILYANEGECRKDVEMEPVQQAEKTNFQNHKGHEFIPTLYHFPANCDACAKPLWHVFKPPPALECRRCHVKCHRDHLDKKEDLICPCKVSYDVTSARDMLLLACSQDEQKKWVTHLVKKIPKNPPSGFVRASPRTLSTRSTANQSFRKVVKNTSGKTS", "test": "Selectivity interaction (Ambit KINOMEscan and KiNATiv profiling in Jurkat cells) EUB0000090b ROCK1", "type": "cell-based", "conditions": "at 1 µM"}},
  "data": [
    {"smiles": "C=CC(=O)Nc1ccc(C(=O)Nc2[nH]nc3c2CN(C(=O)N[C@H](CN(C)C)c2ccccc2)C3(C)C)cc1", "values": [
      {"measurement": "% of engagement", "setting": "[1]", "result": -12.8, "unit": "%"}
    ]},
    {"smiles": "C=CC(=O)Nc1cc(-n2c(=O)ccc3cnc4ccc(-c5ccc(NS(C)(=O)=O)cc5)cc4c32)ccc1C", "values": [
      {"measurement": "% of control", "setting": "[2]; at 1 µM", "result": 100, "unit": "%"},
      {"measurement": "% of control", "setting": "[2]; at 10 µM", "result": 4.9, "unit": "%"}
    ]},
    {"smiles": "Nc1cnc(N2CCc3cc(S(=O)(=O)Nc4c(F)cc(Cl)cc4F)cc(N4CCCC4=O)c32)nc1", "note": "[TP-020n]", "values": [
      {"measurement": "% of control", "setting": "[3]", "result": 100, "unit": "%"}
    ]},
    {"smiles": "Cc1cc([C@@H](C)Nc2ccccc2C(=O)O)c2nc(N3CCOCC3)cc(=O)n2c1", "note": "[AZD-6482]", "values": [
      {"measurement": "% of control", "setting": "[4]", "result": 84, "unit": "%"}
    ]},
    {"smiles": "C=CC(=O)Nc1cccc(C(=O)Nc2ccc(Nc3cc(-c4[nH]c(SC)nc4C)ccn3)cc2)c1", "values": [
      {"measurement": "% of control", "setting": "[5]; at 1 µM", "result": 106, "unit": "%"},
      {"measurement": "% of control", "setting": "[5]; at 5 µM", "result": 69, "unit": "%"}
    ]},
    {"smiles": "N#Cc1cccc(-c2c[nH]c3ncnc(N4CCOCC4)c23)c1", "values": [
      {"measurement": "% of control", "setting": "[6]", "result": 98, "unit": "%"}
    ]},
    {"smiles": "CN(C)CCOc1ccc(-c2nc(-c3ccncc3)c(-c3ccc4c(c3)CC/C4=N\\O)[nH]2)cc1", "values": [
      {"measurement": "% of control", "setting": "[7]", "result": 100, "unit": "%"}
    ]},
    {"smiles": "CN(C)C/C=C/C(=O)Nc1ccc(C(=O)N2CCCC(Nc3ncc(Cl)c(-c4c[nH]c5ccccc45)n3)C2)cc1", "note": "(stereo not given)", "values": [
      {"measurement": "% of control", "setting": "[8]", "result": 90, "unit": "%"}
    ]}
  ]
}
